The structures appear in SMILES notation.

Series [1] deals with SARS-Cov2 (COVID-19 infection). The series can be described thus: Treating SARS-Cov2 infected patients (COVID-19 infection). Type of series: in vivo, human. Conditions: all 11 patients, age 60-89, PCR positive with respiratory symptoms; softgel GTA 12 ml daily oral, 5-10 days, no other medication. The text has this:
Eleven subjects, age 60-89 with various comorbidities, who were positive for COVID-19 infection by the PCR test and already developed respiratory-related symptoms of the disease. […] Treatment duration was between 5-10 days, according to recovery rate.

The nature of series [2]: Treating Long-COVID (post-corona) patients with GTA capsules. The note with it: softgel GTA 12 ml daily oral. Type of series: in vivo, human. The text has this: Long COVID is a range of symptoms that can last weeks or months after first being infected with the virus that causes COVID-19 or can appear weeks after infection. 5 Long-Covid subjects who recovered from COVID-19 infection (=became PCR negative) but still have significant breathing problems that compromised their daily physical activities. […] Treatment duration was between 5-10 days, according to recovery rate.

Series [3] has as its system swine flu infection. The note with it: human, in vivo, po.
The conditions of series [4]: Madhavarao 2009, Segel 2011; cited from earlier work.
The subject of series [5] is tumor-model. Conditions: GTA alone versus combination with chemotherapy (TMZ); WO13013061; cited from earlier work.
For series [6] the following is noted: aqueous solution; cited from earlier work.
The nature of series [7]: Treating asthmatic patients with GTA capsules.
Experimental: These patients where orally administered softgel capsules filled with GTA at a daily dose of 12 ml, either 4 ml three times a day or 6 ml twice a day, during or immediately after meal. Treatment duration was 7 days.
The nature of series [8]: Treating a bronchitis patient with GTA capsules. Conditions: softgel GTA 12 ml daily for a total of 5 days.
Series [9] can be described thus: Treating lung cancer patient with breathing difficulties.
Experimental: The patient started taking pure glyceryl-triacetate (GTA), encapsulated in hard-shell Vegicaps (produced by Capsugel), 12 ml a day, divided among 3 meals. After 3 days the patient increased the dose to 24 ml a day and after additional 3 days they consumed a daily dose of 30 ml GTA for a period of 1 month.

Regarding `CC(=O)OCC(COC(C)=O)OC(C)=O` [GTA, Glyceryltriacetate], the “recovery from the disease” value in [1] is on record as “fully recovered”. The “time to recovery from breathing problems” value in series [2] (5 Long-Covid patients) lay within 5 to 10 days. Further, the “recovery from breathing problems” value in series [2] (all 5 Long-Covid patients, no other medication) was “fully or almost fully recovered”. The “patient's healing compared to non-treated patients” value in series [3] is “acceleration of patient's healing”. The “therapeutic benefit in Canavan disease clinical trials” value in series [4] is on record as “failed to show any therapeutic benefit”. The “improvement in in-vivo tumor-model” value in series [5] was “not by GTA by itself”. The water solubility limit in [6] is listed as 0.25%. Further, the “duration of the beneficial effect” value in series [7] (after 7 days of GTA 12 ml daily, then 2nd round required) is 1-8 weeks. Besides, in series [7] (all 4 chronic asthmatic patients, softgel GTA 12 ml daily oral, 7 days, including giving up inhalation), the patient-reported breathing result is “outstanding improvement”. In addition, the “patient-reported coughing and breathing” value in series [8] was “less to no coughing, improved breathing”. Further, in series [9] (GTA up to 30 ml daily for 1 month), the “tumor mass on CT” value was “no improvement in tumor mass”. In addition, the self-reported breathing result in series [9] (within 2 days after start of GTA 12 ml a day) was “breathing is much easier”. Also, the “use of inhaled Salbutamol” value in [9] (within a week, GTA 12 ml then 24 ml a day) is reported as “stopped taking Salbutamol”. In series [9] (within a week, before treatment not more than ~50 m), the “walking distance without taking a break” value is listed as “hundreds of meters”.

The record behind these values is patent publication US20230338322A1, “GLYCERYLTRIACETATE (GTA) FOR USE IN IMPROVING BREATHING” (YISSUM RESEARCH DEVELOPMENT COMPANY OF THE HEBREW …, priority 2020, published 2023).
